In US12171229B2, “Heteroaryl-triazole and heteroaryl-tetrazole compounds as pesticides” (BAYER AKTIENGESELLSCHAFT, priority 2018, dated 2024):

Assays:
Type in all cases: in vivo
[1] = tested on: Diabrotica balteata; experiment: Diabrotica balteata spray test; conditions: Diabrotica balteata, in Triticum aestivum, 168 h, after 7 days, larvae on wheat seeds, read-out: efficacy (seedlings grown up); for pest or weed control at 80 µg/disc, 250 g/ha: 80 μg/well (=250 g/ha); for pest or weed control at 160 µg/disc, 500 g/ha: 160 μg/well (=500 g/ha)
In short: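 Germinated wheat seeds (5 per well, 1 day on agar) sprayed with compound diluted in water containing 1000 ppm emulsifier, then infested with 10–20 D. balteata larvae. Efficacy scored after 7 days: 100% = seedlings like untreated uninfested control, 0% = no seedlings grown.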

[2] = tested on: Ctenocephalides felis; experiment: Ctenocephalides felis oral test; conditions: 48 h, 100 ppm in cattle blood, after 2 days, adult unfed cat fleas
In short: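 About 20 unfed adult cat fleas feed through parafilm on cattle blood dosed with compound from a DMSO stock. Blood chamber at 37° C, fleas at room temperature. Percent mortality scored after 2 days.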

[3] = tested on: Nezara viridula; experiment: Nezara viridula spray test; conditions: 96 h, after 4 days, larvae on barley plants
In short: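 Barley plants infested with Nezara viridula larvae were sprayed with compound diluted in water containing 1000 ppm emulsifier. Percent mortality was scored 4 days later, where 100% means all bugs killed and 0% none.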

[4] = tested on: Myzus persicae; experiment: Myzus persicae spray test; conditions: foliar, 120 h, after 5 days, Chinese cabbage leaf disks
Procedure: Myzus persicae—Spray Test
To produce a suitable preparation of active compound, 1 part by weight of active compound is mixed with the stated amount of solvents and is diluted with water, containing an emulsifier concentration of 1000 ppm, to the desired concentration. Further test concentrations are prepared by dilution with emulsifier containing water.
Chinese cabbage (Brassica pekinensis) leaf disks infected with all instars of the green peach aphid (Myzus persicae), are sprayed with a preparation of the active ingredient of the desired concentration.
(§1) After 5 days mortality in % is determined. 100% means all aphids have been killed and 0% means none of the aphids have been killed.

[5] = tested on: Myzus persicae; experiment: Myzus persicae oral test; conditions: 120 h, 4 ppm, after 5 days
Procedure: Solvent: 100 parts by weight acetone
To produce a suitable preparation of active compound, 1 part by weight of active compound is mixed with the stated amount of solvent, and the concentrate is diluted with water to the desired concentration.
50 μl compound solution is filled in microtiter plates and 150 μl IPL41 insect medium (33%+15% sugar) is added to obtain a total volume of 200 μl per well. Afterwards the plates are sealed with parafilm through which a mixed population of the green peach aphid (Myzus persicae) can suck on the compound preparation.
as §1

[6] = tested on: Ctenocephalides felis; experiment: Ctenocephalides felis in-vitro contact test, adult cat flea; conditions: 5 μg/cm^2 (=500 g/ha), after 48 hours, adult cat fleas, read-out: efficacy (fleas dead or moribund)
Procedure: Ctenocephalides Felis—In-Vitro Contact Tests Adult Cat Flea 9 mg compound is solved in 1 ml acetone and diluted with acetone to the desired concentration. 250 μl of the test solution is filled in 25 ml glass test tubes and homogeneously distributed on the inner walls by rotation and tilting on a shaking device (2 h at 30 rpm). With a compound concentration of 900 ppm, an inner surface of 44.7 cm^2 and a homogeneous distribution, a dose of 5 μg/cm^2 is achieved. After the solvent has evaporated, each test tube is filled with 5-10 adult cat fleas (Ctenocephalides felis), closed with a perforated lid and incubated in a lying position at room temperature and relative humidity. After 48 hours efficacy is determined. The fleas are patted on the ground of the tubes and are incubated on a heating plate at 45-50° C. for at most 5 minutes. Immotile or uncoordinated moving fleas, which are not able to escape the heat by climbing upwards, are marked as dead or moribund. […] An efficacy of 100% means all fleas are dead or moribund; 0% means no fleas are dead or moribund.

[7] = tested on: Spodoptera frugiperda; experiment: Spodoptera frugiperda spray test; conditions: 168 h, after 7 days, larvae on maize leaf sections
In short: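 Maize leaf sections sprayed with compound diluted in water with 1000 ppm emulsifier, then infested with larvae once dry. Mortality (%) scored after 7 days; 100% = all caterpillars killed.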

[8] = tested on: Anopheles funestus strain FUMOZ-R; experiment: Anopheles funestus test (ANPHFU surface treatment & contact assay); conditions: 24 hours after contact, read-out: efficacy (mortality); for mortality at 4 mg/m2: surface concentration 4 mg/m^2, exposure 30 minutes; for mortality at 20 mg/m2: surface concentration 20 mg/m^2, exposure 30 minutes
Procedure: Anopheles funestus Test (ANPHFU Surface Treatment & Contact Assay)
(§2) Solvent: Aceton+2000 ppm rapeseed oil methyl ester (RME)
(§3) In order to produce a sufficient, active ingredient containing solution it is necessary to solve the test compound in the solvent-mix (acetone at 2 mg/ml/RME 2000 ppm). This solution is pipetted onto a glazed tile and after evaporation of the acetone, adult mosquitoes of the species Anopheles funestus strain FUMOZ-R (Hunt et al., Med. Vet. Entomol. 2005 September; 19(3): 271-275) are placed onto the dried surface. The exposure time is 30 minutes.
(§4) Mortality in percent (%) is determined 24 hours after contact of the insects to the treated surface. 100% mortality means that all tested insects are dead, whereas 0% means that no insect died.

[9] = tested on: Aedes aegypti strain MONHEIM; experiment: Aedes aegypti test (AEDSAE surface treatment & contact assay); conditions: 24 hours after contact, read-out: efficacy (mortality); for mortality at 20 mg/m2: surface concentration 20 mg/m^2, exposure 30 minutes
Procedure: Aedes Aegypti Test (AEDSAE Surface Treatment & Contact Assay)
as §2
as §3, with “Aedes aegypti” for “Anopheles funestus”, “MONHEIM” for “FUMOZ-R (Hunt et al., Med. Vet. Entomol. 2005 September; 19(3): 271-275)”
as §4

[10] = tested on: Culex quinquefasciatus strain P00; experiment: Culex quinquefasciatus test (CULXFA surface treatment & contact assay); conditions: surface concentration 20 mg/m^2, exposure 30 minutes, 24 hours after contact, read-out: efficacy (mortality)
Procedure: Culex Quinquefasciatus Test (CULXFA Surface Treatment & Contact Assay)
as §2
as §3, with “Culex quinquefasciatus” for “Anopheles funestus”, “P00” for “FUMOZ-R (Hunt et al., Med. Vet. Entomol. 2005 September; 19(3): 271-275)”
as §4

[11] = tested on: Boophilus microplus; experiment: Boophilus microplus injection test; conditions: Rhipicephalus microplus, 168 h; 20 μg/animal injected into the abdomen; adult engorged female ticks; egg deposition after 7 days; read-out: efficacy (infertile eggs)
In short: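 Five engorged adult female ticks received a 1 μl abdominal injection of compound in DMSO. They were then held in a climate chamber, with egg deposition checked after 7 days. Unclear eggs were kept until hatching at about 42 days, and efficacy was scored as the percentage of infertile eggs.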

Row | SMILES | pest or weed control at 80 µg/disc, 250 g/ha [1] | pest or weed control at 160 µg/disc, 500 g/ha [1] | mortality at 100 ppm [2] | mortality at 100 g/ha [3] | mortality at 500 g/ha [3] | mortality at 100 g/ha [4] | mortality at 500 g/ha [4] | mortality at 4 ppm [5] | pest or weed control at 5 µg/cm2 [6] | mortality at 100 g/ha [7] | mortality at 500 g/ha [7] | mortality at 4 mg/m2 [8] | mortality at 20 mg/m2 [8] | mortality at 4 mg/m2 ([9]; surface concentration 4 mg/m^2, exposure 30 minutes) | mortality at 20 mg/m2 [9] | mortality at 20 mg/m2 [10] | pest or weed control at 0.02 mg [11]
1 | C[C@H](NC(=O)c1cc(Cl)cc(OC(F)(F)F)c1)c1ncnn1-c1ccc([N+](=O)[O-])cn1 [Example I-089] | 100% | 100% | 100% | 90% | 100% | 90% | 90% | 90% | 100% | 100% | 100% |  |  |  |  |  | 
2 | C[C@H](NC(=O)c1cc(Cl)cc(C(F)(F)F)c1)c1ncnn1-c1ncc(Br)s1 [Example I-083, N-{(1S)-1-[1-(5-bromo-1,3-thiazol-2-yl)-1H-1,2,4-triazol-5-yl]ethyl}-3-chloro-5-(trifluoromethyl)benzamide] | 100% | 100% | 100% |  |  |  |  |  | 90% | 100% | 100% |  |  |  |  |  | 
3 | C[C@H](NC(=O)c1cc(Br)cc(C(F)(F)F)c1)c1ncnn1-c1ccc(C#N)cn1 [Example I-081] | 100% | 100% |  | 90% | 100% |  |  | 100% | 90% | 100% | 100% |  |  |  |  |  | 
4 | CNC(=O)c1ccc(-n2ncnc2[C@H](C)NC(=O)c2cc(Cl)cc(C(F)(F)F)c2)nc1 [Example I-038, 6-(5-{(1S)-1-[3-chloro-5-(trifluoromethyl)benzamido]ethyl}-1H-1,2,4-triazol-1-yl)-N-methylnicotinamide] | 100% | 100% |  |  |  |  | 90% | 100% |  | 100% | 100% | 85 to 100% | 90 to 100% | 90 to 100% | 90 to 100% | 90 to 100% | 
5 | C[C@H](NC(=O)c1cc(Cl)cc(C(F)(F)F)c1)c1ncnn1-c1ccc(SC(F)(F)F)cn1 [Example I-026, 3-chloro-5-(trifluoromethyl)-N-[(1S)-1-(1-{5-[(trifluoromethyl)sulfanyl]pyridin-2-yl}-1H-1,2,4-triazol-5-yl)ethyl]benzamide] | 100% | 100% | 100% |  |  |  |  |  |  | 100% | 100% | 85 to 100% | 90 to 100% |  | 90 to 100% | 90 to 100% | 100%
6 | COc1cc(Cl)cc(C(=O)N[C@@H](C)c2ncnn2-c2ccc(C#N)cn2)c1 [Example I-079] | 100% |  | 100% | 90% | 90% |  |  |  | 90% |  | 100% |  |  |  |  |  | 
7 | C[C@H](NC(=O)c1cc(Cl)cc(C(F)(F)F)c1)c1ncnn1-c1ccc(N)cn1 [Example I-030, N-{(1S)-1-[1-(5-aminopyridin-2-yl)-1H-1,2,4-triazol-5-yl]ethyl}-3-chloro-5-(trifluoromethyl)benzamide] | 100% | 80% | 100% |  | 100% | 90% |  | 100% |  | 83% | 100% |  | 90 to 100% |  | 90 to 100% | 90 to 100% | 100%
8 | C[C@H](NC(=O)c1cc(Cl)cc(C(F)(F)F)c1)c1ncnn1-c1ncc(C(F)(F)F)s1 [Example I-085] | 100% | 100% | 100% |  | 100% |  |  |  | 100% | 100% | 100% |  |  |  |  |  | 
9 | C[C@H](NC(=O)c1cc(Cl)cc(C(F)(F)F)c1)c1ncnn1C1CCS(=O)(=O)C1 (single isomer, unassigned) [Example I-024] | 100% | 100% | 100% |  |  | 90% |  | 100% |  |  |  |  | 90 to 100% |  |  | 90 to 100% | 100%
10 | C[C@H](NC(=O)c1cc(Cl)cc(C(F)(F)F)c1)c1ncnn1-c1ccc(C(=O)NC2CC2)cn1 [Example I-061] | 100% | 100% | 100% |  | 100% |  |  | 100% | 100% | 100% | 100% |  |  |  |  |  | 100%
11 | C[C@H](NC(=O)c1cc(C(F)(F)F)cc(C(F)(F)F)c1)c1ncnn1-c1ncc(Cl)cc1F [Example I-088] | 100% | 100% | 100% | 90% | 100% |  | 90% |  | 100% | 100% | 100% |  |  |  |  |  | 
